Source: ChEMBL document CHEMBL5260813, “An overview on the recent developments of 1,2,4-triazine derivatives as anticancer compounds” (Eur J Med Chem, 2017)
Values after ≈ are worked out from the molar mass of the structure shown. One block for each compound: values may come before it.

What was measured:
[1] = tested on: A549; assay: Antiproliferative activity against human A549 cells assessed as inhibition of cell growth under hypoxia condition; type: functional, cell-based
[2] = tested on: KB; assay: Antiproliferative activity against human KB cells assessed as inhibition of cell growth under hypoxia condition; type: functional, cell-based
[3] = tested on: SMMC-7721; assay: Antiproliferative activity against human SMMC-7721 cells assessed as inhibition of cell growth incubated for 72 hrs by MTT assay; type: functional, cell-based; conditions: SMMC-7721, 72 h
[4] = tested on: A549; assay: Antiproliferative activity against human A549 cells assessed as inhibition of cell growth incubated for 72 hrs by MTT assay; type: functional, cell-based; conditions: A549, 72 h
[5] = tested on: K562; assay: Induction of apoptosis in human K562 cells assessed as increase in apoptotic cells under hypoxia condition relative to control; type: functional
[6] = tested on: K562; assay: Induction of apoptosis in human K562 cells assessed as increase in apoptotic cells under normoxia condition relative to control; type: functional
[7] = tested on: TMD8; assay: Antiproliferative activity against human TMD8 cells assessed as inhibition of cell growth incubated for 3 days by WST-1 assay; type: functional, cell-based; conditions: TMD8, 72 h
[8] = target: T1, Tyrosine-protein kinase SYK (Homo sapiens, UniProt P43405); assay: Inhibition of human SYK using 5-Fluo-Ahx-GAPDYENLQELNKK-Amid as substrate in presence of ATP by microfluidic mobility shift assay
[9] = tested on: OCI-Ly10; assay: Antiproliferative activity against human OCI-Ly10 cells assessed as inhibition of cell growth incubated for 3 days by WST-1 assay; type: functional, cell-based; conditions: OCI-Ly10, 72 h
[10] = target: T1, Tyrosine-protein kinase SYK; assay: Inhibition of SYK in human Ramos cells assessed as reduction in anti IgM-induced phosphorylation of BLNK by flow cytometry assay; type: cell-based
[11] = Antiproliferative activity against human HBL1 cells assessed as inhibition of cell growth incubated for 3 days by WST-1 assay; type: functional, cell-based; conditions: HBL1, 72 h
[12] = tested on: HepG2; assay: Antiproliferative activity against human HepG2 cells assessed as cell growth inhibition by MTT assay; type: functional, cell-based
[13] = tested on: MCF7; assay: Antiproliferative activity against human MCF7 cells assessed as inhibition of cell growth by MTT assay; type: functional, cell-based
[14] = tested on: HCT-116; assay: Antiproliferative activity against human HCT-116 cells assessed as inhibition of cell growth by MTT assay; type: functional, cell-based
[15] = target: T2, Interleukin-1 receptor-associated kinase 4 (Homo sapiens, UniProt Q9NWZ3); assay: Inhibition of human GST-tagged IRAK4 incubated for 30 mins in presence of ATP by fluorescent polarization assay
T2 sequence (Q9NWZ3 whole entry): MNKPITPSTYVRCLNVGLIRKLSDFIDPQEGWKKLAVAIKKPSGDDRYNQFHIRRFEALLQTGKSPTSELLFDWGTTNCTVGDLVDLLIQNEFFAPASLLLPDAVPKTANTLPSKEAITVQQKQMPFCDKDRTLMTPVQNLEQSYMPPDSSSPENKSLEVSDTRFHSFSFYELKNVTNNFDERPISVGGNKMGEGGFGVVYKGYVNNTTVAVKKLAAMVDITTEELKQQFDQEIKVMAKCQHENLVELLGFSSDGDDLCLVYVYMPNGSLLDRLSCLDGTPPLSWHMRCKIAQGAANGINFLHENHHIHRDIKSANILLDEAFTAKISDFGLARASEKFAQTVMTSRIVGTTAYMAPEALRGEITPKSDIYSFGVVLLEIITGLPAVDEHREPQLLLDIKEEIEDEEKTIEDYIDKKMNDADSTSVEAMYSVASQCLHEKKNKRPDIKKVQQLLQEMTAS

[16] = tested on: MDA-MB-468; assay: Antiproliferative activity against human MDA-MB-468 cells assessed as reduction in cell viability; type: functional
[17] = target: Glutaminase kidney isoform, mitochondrial (Homo sapiens, UniProt O94925); assay: Inhibition of GLS in human PC-3 cells using glutamine as substrate by amplex red staining-based horseradish peroxidase/glutamate oxidase coupled assay; type: cell-based
[18] = tested on: SF-268; assay: Antiproliferative activity against human SF-268 cells assessed as inhibition of cell growth at 100 uM relative to control; type: functional
[19] = tested on: MCF7; assay: Antiproliferative activity against human MCF7 cells assessed as inhibition of cell growth at 100 uM relative to control; type: functional
[20] = tested on: OVCAR-4; assay: Antiproliferative activity against human OVCAR-4 cells assessed as cell growth inhibition; type: functional, cell-based
[21] = tested on: CAKI-1; assay: Antiproliferative activity against human CAKI-1 cells assessed as inhibition of cell growth; type: functional, cell-based
[22] = tested on: PC-3; assay: Antiproliferative activity against human PC-3 cells assessed as inhibition of cell growth measured after 48 hrs by MTT assay; type: functional, cell-based; conditions: PC-3, 48 h
[23] = tested on: NCI-H460; assay: Antiproliferative activity against human NCI-H460 cells assessed as inhibition of cell growth measured after 48 hrs by MTT assay; type: functional, cell-based; conditions: NCI-H460, 48 h
[24] = tested on: MCF7; assay: Antiproliferative activity against human MCF7 cells assessed as inhibition of cell growth measured after 48 hrs by MTT assay; type: functional, cell-based; conditions: MCF7, 48 h
[25] = target: Fibroblast growth factor receptor (Homo sapiens, UniProt P22607+P11362+P22455+P21802); assay: Inhibition of FGFR (unknown origin); type: protein assay
[26] = tested on: NCI-H460; assay: Antiproliferative activity against human NCI-H460 cells assessed as inhibition of cell growth; type: functional, cell-based
[27] = tested on: MCF7; assay: Antiproliferative activity against human MCF7 cells assessed as inhibition of cell growth; type: functional, cell-based
[28] = tested on: SF-268; assay: Antiproliferative activity against human SF-268 cells assessed as inhibition of cell growth; type: functional, cell-based
[29] = target: Cyclin-dependent kinase 2/cyclin E1 (Homo sapiens, UniProt P24941); assay: Inhibition of CDK2/cyclin E1 (unknown origin) expressed in Sf9 cells
[30] = Cytotoxicity against human CEM cells assessed as inhibition of cell growth incubated for 72 hrs by MTT assay; type: toxicity, cell-based; conditions: CEM (CCRF-CEM) cells, pooled result: one value given for 5 cell lines, strains, targets or settings
[31] = tested on: MCF7; assay: Cytotoxicity against human MCF7 cells assessed as inhibition of cell growth incubated for 72 hrs by MTT assay; type: functional, cell-based; conditions: MCF7, 72 h
[32] = tested on: Panel NCI-60 (60 carcinoma cell lines); assay: Antiproliferative activity against human Panel NCI-60 (60 carcinoma cell lines) cells assessed as inhibition of cell growth; type: functional, cell-based

Sequence of Glutaminase kidney isoform, mitochondrial (O94925 whole entry, canonical isoform): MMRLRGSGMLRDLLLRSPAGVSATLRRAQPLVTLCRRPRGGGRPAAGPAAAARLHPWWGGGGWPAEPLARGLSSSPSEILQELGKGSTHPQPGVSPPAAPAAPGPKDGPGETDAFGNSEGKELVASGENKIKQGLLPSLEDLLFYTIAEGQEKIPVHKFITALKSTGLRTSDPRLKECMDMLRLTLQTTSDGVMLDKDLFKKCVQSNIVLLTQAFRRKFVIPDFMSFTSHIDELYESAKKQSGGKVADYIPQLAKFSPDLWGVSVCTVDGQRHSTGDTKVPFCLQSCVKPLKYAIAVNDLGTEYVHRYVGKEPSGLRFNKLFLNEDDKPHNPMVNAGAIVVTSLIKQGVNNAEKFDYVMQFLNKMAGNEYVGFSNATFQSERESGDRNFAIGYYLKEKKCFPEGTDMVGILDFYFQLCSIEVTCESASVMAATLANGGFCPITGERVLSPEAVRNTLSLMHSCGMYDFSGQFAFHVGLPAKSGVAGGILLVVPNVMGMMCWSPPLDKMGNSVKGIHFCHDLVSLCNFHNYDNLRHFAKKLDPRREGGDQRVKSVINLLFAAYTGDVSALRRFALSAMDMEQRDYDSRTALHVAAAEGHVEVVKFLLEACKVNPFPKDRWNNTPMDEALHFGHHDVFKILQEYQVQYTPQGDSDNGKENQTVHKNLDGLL

SMILES: COCNc1n[n+]([O-])c2ccccc2[n+]1[O-]
IC50 [1]: 2700 nM
IC50 [2]: 2700 nM

SMILES: CCOCNc1n[n+]([O-])c2ccccc2[n+]1[O-]
IC50 [3]: 3120 nM
IC50 [4]: 3120 nM
Activity [5]: 32.11%
IC50 [2]: 4090 nM
Activity [6]: 9.5%

SMILES: NC(=O)c1nnc(N[C@@H]2CCCC[C@@H]2N)nc1Nc1cccc2cc[nH]c12
IC50 [7]: 281 nM
IC50 [8]: 0.8 nM
IC50 [9]: 25 nM
IC50 [10]: 14 nM
IC50 [11]: 105 nM

SMILES: O=c1[nH]n2c(=O)c(/C=C/c3cccs3)nnc2s1
IC50 [12]: 8.34 µg/mL (≈ 30 µM)
IC50 [13]: 8.34 µg/mL (≈ 30 µM)
IC50 [14]: 8.34 µg/mL (≈ 30 µM)

SMILES: O=C(O)CCc1nn2c(=O)c(/C=C/c3cccs3)nnc2s1
IC50 [12]: 12.1 µg/mL (≈ 36.3 µM)
IC50 [13]: 11.7 µg/mL (≈ 34.8 µM)
IC50 [14]: 8.34 µg/mL (≈ 24.9 µM)

IC50 [15]: 1 nM
SMILES: CCn1cc(NC(=O)c2ccc3cnc(NC4CCCCC4N)nn23)c(C(N)=O)n1 (centres undefined)

SMILES: CC(C)c1ccc(-c2nn3nnc4ccccc4c3nc2=O)cc1
GI50 [16]: 410 nM

IC50 [17]: 43 nM
SMILES: COC(C(=O)Cc1cnc(NC2CCN(c3cncnn3)C2)s1)c1cccc(OC(F)(F)F)c1 (centres undefined)

SMILES: CC(=O)OC[C@H]1O[C@@H](n2nc(Cc3ccccc3)c(=S)n(N)c2=S)[C@H](OC(C)=O)[C@@H](OC(C)=O)[C@H]1OC(C)=O
inhibition at 100 µM [18]: 38%
inhibition at 100 µM [19]: 15%

SMILES: Cc1nn(C)c2nn3nnnc3nc12
IC50 [20]: 1120 nM
IC50 [21]: 1120 nM
IC50 [22]: 400 nM
IC50 [23]: 400 nM
IC50 [24]: 400 nM

IC50 [25]: 350 nM
SMILES: CCn1c(=O)c(-c2cc(OC)cc(OC)c2)cc2nnc(Nc3ccncc3)nc21

SMILES: Cc1ccc(C2=NN=C(/C(C#N)=N/Nc3sc4c(c3C#N)CCCC4)N(Nc3ccccc3)C2)cc1
IC50 [26]: 6800 nM
IC50 [27]: 12400 nM
IC50 [28]: 8300 nM

IC50 [15]: 0.7 nM
SMILES: Cn1cc(NC(=O)c2ccc3cnc(NC4CCCCC4N)nn23)c(C(N)=O)n1 (centres undefined)

SMILES: Oc1cccc(-n2nc(-c3cc(O)c(O)c(O)c3)c3nc(-c4ccc(Cl)cc4)nnc32)c1
IC50 [29]: 17300 nM
IC50 at 72 h [30]: 1900 nM
IC50 [31]: 1900 nM

SMILES: Cc1c(C#N)c2nnc(C(N)=O)c(N)n2c1-c1ccccc1
IC50 [20]: 2770 nM
IC50 [32]: 3340 nM

SMILES: O=C(O)c1ccccc1-c1nn2c(=O)c(/C=C/c3cccs3)nnc2s1
IC50 [12]: 8.34 µg/mL (≈ 21.8 µM)
IC50 [13]: 8.34 µg/mL (≈ 21.8 µM)
IC50 [14]: 8.34 µg/mL (≈ 21.8 µM)

SMILES: Oc1cc(-c2nn(-c3cc(O)c(O)c(O)c3)c3nnc(-c4ccc(Cl)cc4)nc23)cc(O)c1O
IC50 [29]: 11000 nM
IC50 at 72 h [30]: 770 nM
IC50 [31]: 770 nM
